Test results from patent publication US9073821B2, “Hydroxamic acid derivative” (priority 2010, dated 2015).
Where two headings read alike, the source gives them in different places.

Biological target: Pseudomonas aeruginosa LpxC enzyme (Pseudomonas aeruginosa (strain ATCC 15692 / DSM 22644 / CIP 104116 / JCM 14847 / LMG 12228 / 1C / PRS 101 / PAO1), UniProt P47205)
Assay: biochemical
Type: biochemical
[1] = inhibitory activity on Pseudomonas aeruginosa LpxC enzyme, class symbols A/B/C, read-out: Enzyme inhibitory activity
[2] = class symbols A/B/C by IC50, Table 3, read-out: Enzyme inhibitory activity (inhibitory activity on Pseudomonas aeruginosa LpxC enzyme)

IC50 [1]	IC50 [2]	Compound
10 to 100 nM	–	CNC(=O)C(C(=O)NO)N(C)C(=O)c1ccc(-c2ccc(OC)nc2)cc1 (centres unmarked) [Compound 449, N-hydroxy-2-[{[4-(6-methoxypyridin-3-yl)phenyl]carbonyl}(methyl)amino]-N′-methylpropanediamide]
–	10 to 100 nM	CNC(=O)C(C(=O)NO)N(C)C(=O)c1ccc(C#Cc2cnn(C)c2)cc1 (centres unmarked) [Compound 504, N-hydroxy-N′-methyl-2-[methyl({4-[(1-methyl-1H-pyrazol-4-yl)ethynyl]phenyl}carbonyl)amino]propanediamide]
–	< 10 nM	CN(C(=O)c1ccc(C#Cc2ccc(CN3CCCOCC3)cc2)cc1)C(C)(C(=O)NO)C(=O)NCc1ccccn1 (centres unmarked) [Compound 521, N-hydroxy-2-methyl-2-{methyl[(4-{[4-(1,4-oxazepan-4-ylmethyl)phenyl]ethynyl}phenyl)carbonyl]amino}-N′-(pyridin-2-ylmethyl)propanediamide]
< 10 nM	–	CNC(=O)C(C(=O)NO)N(C)C(=O)c1ccc(-c2ccc(SC)cc2)cc1 (centres unmarked) [Compound 42, N-hydroxy-N′-methyl-2-(methyl {[4′-(methylsulfanyl)biphenyl-4-yl]carbonyl}amino)propanediamide]
10 to 100 nM	–	CCCNC(=O)c1ccc(-c2ccc(C(=O)N(C)C(C(=O)NC)C(=O)NO)cc2)cc1 (centres unmarked) [Compound 257, N-[1-(hydroxyamino)-3-(methylamino)-1,3-dioxopropan-2-yl]-N-methyl-N′-propylbiphenyl-4,4′-dicarboxamide]
10 to 100 nM	–	O=C(NC(C(=O)NO)C(=O)NCC1CC1)c1ccc(-c2ccc(OCCO)cc2)cc1 (centres unmarked) [Compound 9, N-(cyclopropylmethyl)-N′-hydroxy-2-({[4′-(2-hydroxyethoxy)biphenyl-4-yl]carbonyl}amino)propanediamide]
< 10 nM	–	CNC(=O)C(C(=O)NO)N(C)C(=O)c1ccc(-c2cc3ccccc3o2)cc1 (centres unmarked) [Compound 312, 2-[{[4-(1-benzofuran-2-yl)phenyl]carbonyl}(methyl)amino]-N-hydroxy-N′-methylpropanediamide]
10 to 100 nM	–	CCNC(=O)C(C(=O)NO)N(C)C(=O)c1ccc(-c2ccccc2)cc1 (centres unmarked) [Compound 242, 2-[(biphenyl-4-ylcarbonyl)(methyl)amino]-N-ethyl-N′-hydroxypropanediamide]
10 to 100 nM	–	CNC(=O)C(C(=O)NO)N(C)C(=O)c1ccc(-c2cccc(OC)c2)cc1 (centres unmarked) [Compound 279, N-hydroxy-2-{[(3′-methoxybiphenyl-4-yl)carbonyl](methyl)amino}-N′-methylpropanediamide]
10 to 100 nM	–	O=C(NC(C(=O)NO)C(=O)NO)c1ccc(-c2ccccc2)cc1 [Compound 109, 2-[(biphenyl-4-ylcarbonyl)amino]-N,N′-dihydroxypropanediamide]
> 100 nM	–	CNC(=O)C(C(=O)NO)N(C)C(=O)c1ccc(-c2cccc(C)n2)cc1 (centres unmarked) [Compound 295, N-hydroxy-N′-methyl-2-(methyl {[4-(6-methylpyridin-2-yl)phenyl]carbonyl}amino)propanediamide]
10 to 100 nM	–	CNC(=O)C(C(=O)NO)N(C)C(=O)c1ccc(-c2ccc3ncn(C)c3c2)cc1 (centres unmarked) [Compound 282, N-hydroxy-N′-methyl-2-{methyl[4-(1-methyl-1H-benzimidazol-6-yl)benzoyl]amino}propanediamide]
–	< 10 nM	CNC(=O)C(C(=O)NO)N(C)C(=O)c1ccc(C#Cc2ccc(CN3CCCC(C)(C)C3)cc2)cc1 (centres unmarked) [Compound 513, 2-[{[4-({4-[(3,3-dimethylpiperidin-1-yl)methyl]phenyl}ethynyl)phenyl]carbonyl}(methyl)amino]-N-hydroxy-N′-methylpropanediamide]
< 10 nM	–	CNC(=O)C(NC(=O)c1ccc(-c2ccc(OCCO)cc2)cc1)C(=O)NO (centres unmarked) [Compound 113, N-hydroxy-2-({[4′-(2-hydroxyethoxy)biphenyl-4-yl]carbonyl}amino)-N′-methylpropanediamide]
10 to 100 nM	–	CNC(=O)C(C(=O)NO)N(C)C(=O)c1ccc(-c2ccc(N3CC(O)C3)cc2)cc1 (centres unmarked) [Compound 244, N-hydroxy-2-[{[4′-(3-hydroxyazetidin-1-yl)biphenyl-4-yl]carbonyl}(methyl)amino]-N′-methylpropanediamide]
< 10 nM	–	O=C(NC(C(=O)NO)C(=O)NCc1ccccn1)c1ccc(-c2ccc(OCCO)cc2)cc1 (centres unmarked) [Compound 130, N-hydroxy-2-({[4′-(2-hydroxyethoxy)biphenyl-4-yl]carbonyl}amino)-N′-(pyridin-2-ylmethyl)propanediamide]
10 to 100 nM	–	CNC(=O)C(C(=O)NO)N(C)C(=O)c1ccc(C#Cc2ccc(CN(C)C3CCCCC3)cc2)cc1 (centres unmarked) [Compound 327, 2-[({4-[(4-{[cyclohexyl(methyl)amino]methyl}phenyl)ethynyl]phenyl}carbonyl)(methyl)amino]-N-hydroxy-N′-methylpropanediamide]

IC50 [1]	IC50 [2]	Compound
10 to 100 nM	–	CNC(=O)C(C(=O)NO)N(C)C(=O)c1ccc(OCc2ccccc2)cc1 (centres unmarked) [Compound 454, 2-[{[4-(benzyloxy)phenyl]carbonyl}(methyl)amino]-N-hydroxy-N′-methylpropanediamide]
< 10 nM	–	CNC(=O)C(C(=O)NO)N(C)C(=O)c1ccc(-c2ccc3[nH]ccc3c2)cc1 (centres unmarked) [Compound 201, N-hydroxy-2-{[4-(1H-indol-5-yl)benzoyl](methyl)amino}-N′-methylpropanediamide]
–	< 10 nM	CNC(=O)[C@@](C)(C(=O)NO)N(C)C(=O)c1ccc(C#Cc2coc(CO)c2)cc1 [Compound 616, (2S)-N-hydroxy-2-[(4-{[5-(hydroxymethyl)furan-3-yl]ethynyl}benzoyl)(methyl)amino]-N′,2-dimethylpropanediamide]
–	10 to 100 nM	CCN1Cc2cc(C#Cc3ccc(C(=O)N(C)C(C(=O)NC)C(=O)NO)cc3)ccc2[C@H]1C (stereo partly drawn) [Compound 516, 2-{[(4-{[(1R)-2-ethyl-1-methyl-2,3-dihydro-1H-isoindol-5-yl]ethynyl}phenyl)carbonyl](methyl)amino}-N-hydroxy-N′-methylpropanediamide]
10 to 100 nM	–	CNC(=O)C(C(=O)NO)N(C)C(=O)c1ccc(C#Cc2ccc(CNCCC(C)(C)O)cc2)cc1 (centres unmarked) [Compound 323, N-hydroxy-2-[({4-[(4-{[(3-hydroxy-3-methylbutyl)amino]methyl}phenyl)ethynyl]phenyl}carbonyl)(methyl)amino]-N′-methylpropanediamide]
< 10 nM	–	CNC(=O)C(C(=O)NO)N(C)C(=O)c1ccc(C#Cc2ccc(CN(CCO)CCO)cc2)cc1 (centres unmarked) [Compound 315, 2-[({4-[(4-{[bis(2-hydroxyethyl)amino]methyl}phenyl)ethynyl]phenyl}carbonyl)(methyl)amino]-N-hydroxy-N′-methylpropanediamide]
10 to 100 nM	–	CNC(=O)C(C(=O)NO)N(C)C(=O)c1ccc(N2CC(c3ccccc3)C2)cc1 (centres unmarked) [Compound 249, N-hydroxy-N′-methyl-2-{methyl[4-(3-phenylazetidin-1-yl)benzoyl]amino}propanediamide]
–	< 10 nM	CCOC1CN(Cc2ccc(C#Cc3ccc(C(=O)N(C)C(C(=O)NC)C(=O)NO)cc3C)cc2)C1 (centres unmarked) [Compound 582, 2-[{[4-({4-[(3-ethoxyazetidin-1-yl)methyl]phenyl}ethynyl)-3-methylphenyl]carbonyl}(methyl)amino]-N-hydroxy-N′-methylpropanediamide]
10 to 100 nM	–	CNC(=O)C(C(=O)NO)N(C)C(=O)c1ccc(-c2ccc(OCc3ccc(C(=O)O)cc3)cc2)cc1 (centres unmarked) [Compound 98, 4-{[(4′-{[1-(hydroxyamino)-3-(methylamino)-1,3-dioxopropan-2-yl](methyl)carbamoyl}biphenyl-4-yl)oxy]methyl}benzoate]
10 to 100 nM	–	CNC(=O)C(C(=O)NO)N(C)C(=O)c1ccc(C#Cc2cccc(CNC3CC3)c2)cc1 (centres unmarked) [Compound 379, 2-[{[4-({3-[(cyclopropylamino)methyl]phenyl}ethynyl)phenyl]carbonyl}(methyl)amino]-N-hydroxy-N′-methylpropanediamide]
< 10 nM	–	CNC(=O)C(C(=O)NO)N(C)C(=O)c1ccc(-c2ccc(OCC(C)(C)O)cc2)cc1 (centres unmarked) [Compound 280, N-hydroxy-2-[{[4′-(2-hydroxy-2-methylpropoxy)biphenyl-4-yl]carbonyl}(methyl)amino]-N′-methylpropanediamide]
10 to 100 nM	–	CNC(=O)C(C(=O)NO)N(C)C(=O)c1ccc(-c2ccc(S(C)(=O)=O)cc2)cc1 (centres unmarked) [Compound 352, N-hydroxy-N′-methyl-2-(methyl {[4′-(methylsulfonyl)biphenyl-4-yl]carbonyl}amino)propanediamide]
10 to 100 nM	–	O=C(NC(C(=O)NO)C(=O)NCCc1ccccc1)c1ccc(-c2ccc(OCCO)cc2)cc1 (centres unmarked) [Compound 125, N-hydroxy-2-({[4′-(2-hydroxyethoxy)biphenyl-4-yl]carbonyl}amino)-N′-(2-phenylethyl)propanediamide]
< 10 nM	–	CNC(=O)C(C(=O)NO)N(C)C(=O)c1ccc(-c2ccc(F)c(Cl)c2)cc1 (centres unmarked) [Compound 223, 2-{[(3′-chloro-4′-fluorobiphenyl-4-yl)carbonyl](methyl)amino}-N-hydroxy-N′-methylpropanediamide]
< 10 nM	–	CCOCc1ccc(-c2ccc(C(=O)N(C)C(C(=O)NC)C(=O)NO)cc2)cc1 (centres unmarked) [Compound 285, 2-[{[4′-(ethoxymethyl)biphenyl-4-yl]carbonyl}(methyl)amino]-N-hydroxy-N′-methylpropanediamide]
< 10 nM	–	CNC(=O)C(C(=O)NO)N(C)C(=O)c1ccc(-c2ccc3c(cnn3C)c2)cc1 (centres unmarked) [Compound 196, N-hydroxy-N′-methyl-2-{methyl[4-(1-methyl-1H-indazol-5-yl)benzoyl]amino}propanediamide]
10 to 100 nM	–	CCCCc1ccc(C(=O)N(C)C(C(=O)NC)C(=O)NO)cc1 (centres unmarked) [Compound 37, 2-[(4-butylbenzoyl)(methyl)amino]-N-hydroxy-N′-methylpropanediamide]

Compound	IC50 [1]	IC50 [2]
CNC(=O)C(C(=O)NO)N(C)C(=O)c1ccc(-c2ccc(OCCCCOC)cc2)cc1 (centres unmarked) [Compound 215, N-hydroxy-2-[{[4′-(4-methoxybutoxy)biphenyl-4-yl]carbonyl}(methyl)amino]-N′-methylpropanediamide]	< 10 nM	–
